From patent US9815796B2 (Merck Sharp & Dohme Corp., priority 2013, dated 2017)
Read-outs that look alike come from different tables or passages of the source.

Columns and labels:
human PDE2A1 = human PDE2A1 (Homo sapiens (Human), UniProt O00408); test: IMAP FP PDE selectivity panel, human PDE2A1; format: biochemical
How it was run: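 GST-tagged human PDE2A1 expressed in insect cells, run at room temperature for 60 min with 50 nM FAM-cAMP containing 1000 nM cGMP, pH 7.2 Tris/MgCl2 buffer. IMAP fluorescence polarization read after binding step.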

Rhesus PDE2A3 = Rhesus PDE2A3 (Macaca mulatta, UniProt B3VTJ2); test: PDE2 fluorescence polarization (IMAP FP) inhibition assay, rhesus enzyme; format: biochemical, rhesus macaque; settings: Rhesus PDE2, Lab A; read-out: Rhesus PDE2 Ki (nM) - Lab A
Sequence of Rhesus PDE2A3 (B3VTJ2 1-941): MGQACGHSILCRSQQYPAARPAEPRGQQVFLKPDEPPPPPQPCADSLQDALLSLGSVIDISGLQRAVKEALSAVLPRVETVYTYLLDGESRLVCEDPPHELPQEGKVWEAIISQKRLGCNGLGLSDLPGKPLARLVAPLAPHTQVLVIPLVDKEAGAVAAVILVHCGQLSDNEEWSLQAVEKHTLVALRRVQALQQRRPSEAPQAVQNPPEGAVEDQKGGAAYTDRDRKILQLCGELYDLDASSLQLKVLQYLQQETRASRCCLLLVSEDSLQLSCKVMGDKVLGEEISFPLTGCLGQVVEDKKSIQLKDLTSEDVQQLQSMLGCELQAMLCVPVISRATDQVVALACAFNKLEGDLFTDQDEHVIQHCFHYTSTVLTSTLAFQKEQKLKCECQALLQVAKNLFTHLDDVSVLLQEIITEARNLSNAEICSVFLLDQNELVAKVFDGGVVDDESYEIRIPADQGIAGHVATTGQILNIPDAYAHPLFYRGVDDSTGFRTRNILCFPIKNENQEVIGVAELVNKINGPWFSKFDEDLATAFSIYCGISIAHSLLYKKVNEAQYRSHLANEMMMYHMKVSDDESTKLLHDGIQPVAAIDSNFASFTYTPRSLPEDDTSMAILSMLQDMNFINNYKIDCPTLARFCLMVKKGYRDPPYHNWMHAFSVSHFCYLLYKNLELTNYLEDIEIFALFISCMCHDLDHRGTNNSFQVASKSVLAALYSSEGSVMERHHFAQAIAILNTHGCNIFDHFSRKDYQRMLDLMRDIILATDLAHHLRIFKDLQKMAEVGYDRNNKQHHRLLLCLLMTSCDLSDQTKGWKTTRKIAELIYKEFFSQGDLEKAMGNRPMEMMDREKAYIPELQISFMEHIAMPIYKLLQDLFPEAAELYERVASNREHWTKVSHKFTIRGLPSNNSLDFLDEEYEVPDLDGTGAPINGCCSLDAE
How it was run: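 Rhesus PDE2A3 came from lysate of transiently transfected AD293 cells, diluted to give 20% substrate conversion. Substrate was 50 nM FAM-cAMP with 1 uM cGMP activator in Tris pH 7.2/MgCl2 buffer, run 60 min at room temperature over 10-point 3-fold dilutions in 1% DMSO. Read-out was IMAP fluorescence polarization (mP) after ≥1 h binding.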

[1] = Human PDE2, Lab A, read-out: Human PDE2 Ki (nM) - Lab A
[2] = Human PDE2, Lab B, read-out: Human PDE2 Ki (nM) - Lab B

Sequence of human PDE2A1 (O00408 other isoform, or with tags, fused parts or gaps): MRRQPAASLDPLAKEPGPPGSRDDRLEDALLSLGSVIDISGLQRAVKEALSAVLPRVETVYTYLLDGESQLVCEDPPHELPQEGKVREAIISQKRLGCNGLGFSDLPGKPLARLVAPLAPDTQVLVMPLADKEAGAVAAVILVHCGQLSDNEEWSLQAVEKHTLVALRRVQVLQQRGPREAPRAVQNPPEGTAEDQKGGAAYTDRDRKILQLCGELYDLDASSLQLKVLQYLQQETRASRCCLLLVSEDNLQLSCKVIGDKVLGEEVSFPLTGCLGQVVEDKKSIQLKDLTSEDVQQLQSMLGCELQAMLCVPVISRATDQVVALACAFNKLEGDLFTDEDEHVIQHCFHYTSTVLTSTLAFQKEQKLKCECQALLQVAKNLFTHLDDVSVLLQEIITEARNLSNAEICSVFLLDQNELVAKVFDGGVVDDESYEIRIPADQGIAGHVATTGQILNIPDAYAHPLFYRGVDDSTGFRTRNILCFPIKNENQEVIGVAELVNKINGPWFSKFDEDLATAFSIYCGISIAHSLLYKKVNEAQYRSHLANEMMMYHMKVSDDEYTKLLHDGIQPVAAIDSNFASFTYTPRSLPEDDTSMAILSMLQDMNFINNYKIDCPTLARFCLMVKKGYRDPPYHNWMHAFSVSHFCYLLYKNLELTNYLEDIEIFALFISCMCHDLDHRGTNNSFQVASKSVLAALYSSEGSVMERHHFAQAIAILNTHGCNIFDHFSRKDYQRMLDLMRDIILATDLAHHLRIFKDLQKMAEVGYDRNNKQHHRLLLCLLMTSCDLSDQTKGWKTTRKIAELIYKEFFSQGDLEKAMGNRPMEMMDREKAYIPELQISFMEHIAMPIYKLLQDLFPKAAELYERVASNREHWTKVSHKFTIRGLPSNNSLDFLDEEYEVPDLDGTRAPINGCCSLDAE

| SMILES | Ki (human PDE2A1; [1]) | Ki (human PDE2A1; [2]) | Ki (Rhesus PDE2A3) |
| --- | --- | --- | --- |
| Cc1nc(C(=O)NC2(c3ccc(OC(F)(F)F)cc3)CCC2)cc(=O)[nH]1 [Example 269] | 118 nM | 96 nM | 158 nM |
| Cc1nc(C(=O)NC2(c3ccc(C(F)(F)F)cc3)CCCC2)cc(=O)[nH]1 [Example 270, 2-methyl-6-oxo-N-{1-[4-(trifluoromethyl)phenyl]cyclopentyl}-1,6-dihydropyrimidine-4-carboxamide] | 113 nM |  | 225 nM |
| Cc1nc(C(=O)NC(C)(C)c2ccc(C(F)(F)F)cc2)cc(=O)[nH]1 [Example 272, 2-methyl-N-{1-methyl-1-[4-(trifluoromethyl)phenyl]ethyl}-6-oxo-1,6-dihydropyrimidine-4-carboxamide] | 40 nM | 71 nM | 42 nM |
| Cc1nc(C(=O)NC(C)(C)c2ccc(OC(F)(F)F)cc2)cc(=O)[nH]1 [Example 273, 2-methyl-N-{1-methyl-1-[4-(trifluoromethoxy)phenyl]ethyl}-1,6-oxo-1,6-dihydropyrimidine-4-carboxamide] | 278 nM |  | 304 nM |
| O=C(NC1(c2ccc(OC(F)(F)F)cc2)CCC1)c1cc(=O)[nH]c(-c2ccccc2)n1 [Example 282] | 61 nM |  | 124 nM |
| C[C@@H](NC(=O)c1cc(=O)[nH]c(-c2ncccn2)n1)c1ccc(OC(F)(F)F)cc1 [Example 283, 6-oxo-N-{(1R)-1-[4-(trifluoromethoxy)phenyl]ethyl}-1,6-dihydro-2,2′-bipyrimidine-4-carboxamide] | 6 nM |  | 8.7 nM |

More lines, now with the values ahead:

| Ki (human PDE2A1; [1]) | Ki (human PDE2A1; [2]) | Ki (Rhesus PDE2A3) | SMILES |
| --- | --- | --- | --- |
| 6.7 nM |  | 6.7 nM | C[C@@H](NC(=O)c1cc(=O)[nH]c(-c2ccccc2)n1)c1ccc(C(F)(F)F)cc1 [Example 274, 6-oxo-2-phenyl-N-{(1R)-1-[4-(trifluoromethyl)phenyl]ethyl}-1,6-dihydropyrimidine-4-carboxamide] |
| 3 nM |  | 4.5 nM | C[C@@H](NC(=O)c1cc(=O)[nH]c(-c2ccccc2)n1)c1ccc(OC(F)(F)F)cc1 [Example 275, 6-oxo-2-phenyl-N-{(1R)-1-[4-(trifluoromethoxy)phenyl]ethyl}-1,6-dihydropyrimidine-4-carboxamide] |
| 3.8 nM |  | 4.2 nM | O=C(NC1(c2ccc(C(F)(F)F)cc2)CC1)c1cc(=O)[nH]c(-c2ccccc2)n1 [Example 276, 6-oxo-2-phenyl-N-{1-[4-(trifluoromethyl)phenyl]cyclopropyl}-1,6-dihydropyrimidine-4-carboxamide] |
| 5.6 nM |  | 6.6 nM | O=C(NC1(c2ccc(OC(F)(F)F)cc2)CC1)c1cc(=O)[nH]c(-c2ccccc2)n1 [Example 277, 6-oxo-2-phenyl-N-{1-[4-(trifluoromethoxy)phenyl]cyclopropyl}-1,6-dihydropyrimidine-4-carboxamide] |
| 12 nM |  | 18 nM | O=C(NC1(c2ccc(C(F)(F)F)cc2)CCC1)c1cc(=O)[nH]c(-c2ccccc2)n1 [Example 278, 6-oxo-2-phenyl-N-{1-[4-(trifluoromethyl)phenyl]cyclobutyl}-1,6-dihydropyrimidine-4-carboxamide] |
| 16 nM |  | 24 nM | C[C@@H](NC(=O)c1cc(=O)[nH]c(-c2ccccc2)n1)c1ccc(-c2ccccc2)cc1 [Example 279, N-[(1R)-1-biphenyl-4-ylethyl]-6-oxo-2-phenyl-1,6-dihydropyrimidine-4-carboxamide] |
| 16 nM |  | 19 nM | CC(C)(NC(=O)c1cc(=O)[nH]c(-c2ccccc2)n1)c1ccc(C(F)(F)F)cc1 [Example 280, N-{1-methyl-1-[4-(trifluoromethyl)phenyl]ethyl}-6-oxo-2-phenyl-1,6-dihydropyrimidine-4-carboxamide] |
| 82 nM |  | 133 nM | CC(C)(NC(=O)c1cc(=O)[nH]c(-c2ccccc2)n1)c1ccc(OC(F)(F)F)cc1 [Example 281, N-{1-methyl-1-[4-(trifluoromethoxy)phenyl]ethyl}-6-oxo-2-phenyl-1,6-dihydropyrimidine-4-carboxamide] |
